According to the supplement of paper PMC10307832:

Key:
Assay in all cases: relative viability (nuclei count vs DMSO), 5 days (fraction); higher = more cells survive
[1] = compound: C1CNCCC1C2=CC(=NN2)C3=CC=NC=C3 + Cc1nc(Nc2ncc(C(=O)Nc3c(C)cccc3Cl)s2)cc(N2CCN(CCO)CC2)n1 [Dasatinib] (partner 0.075 µM)
Procedure, shortened: (§1)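 One day after seeding in 1536-well plates, lung cancer cell lines were dosed by pin tool. Dosing was either single-drug or a fixed anchor-drug dose plus five library-drug doses (not always all listed) in √10 steps. After 5 days, nuclei were stained in one fix-and-stain step and counted on 4× images, and relative viability is the nuclei count of treated wells over that of vehicle wells, given as the median of duplicate plates.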

[2] = compound: C[C@@H](N)c1ccc(C(=O)Nc2ccnc3[nH]ccc23)cc1 + Cc1nc(Nc2ncc(C(=O)Nc3c(C)cccc3Cl)s2)cc(N2CCN(CCO)CC2)n1 [Dasatinib] (partner 0.075 µM)
Procedure, shortened: as §1

Tanzisertib + Lapatinib = compound: O[C@H]1CC[C@H](Nc2ncc3nc(Nc4c(F)cc(F)cc4F)n([C@H]4CCOC4)c3n2)CC1 [Tanzisertib] + CS(=O)(=O)CCNCc1ccc(-c2ccc3ncnc(Nc4ccc(OCc5cccc(F)c5)c(Cl)c4)c3c2)o1 [Lapatinib] (partner 2 µM)
Procedure, shortened: as §1

Tanzisertib + Phenformin = compound: O[C@H]1CC[C@H](Nc2ncc3nc(Nc4c(F)cc(F)cc4F)n([C@H]4CCOC4)c3n2)CC1 [Tanzisertib] + N=C(N)NC(=N)NCCc1ccccc1 [Phenformin] (partner 250 µM)
Procedure, shortened: as §1

Row | Cell Line | relative viability ([1]; first compound 0.08 µM) | relative viability ([1]; first compound 0.8 µM) | relative viability ([1]; first compound 2.53 µM) | relative viability ([1]; first compound 8 µM) | relative viability ([2]; first compound 0.04 µM) | relative viability ([2]; first compound 0.1265 µM) | relative viability ([2]; first compound 0.4 µM) | relative viability ([2]; first compound 1.265 µM) | relative viability ([2]; first compound 4 µM) | relative viability (Tanzisertib + Lapatinib; first compound 0.08 µM) | relative viability (Tanzisertib + Lapatinib; first compound 0.253 µM) | relative viability (Tanzisertib + Lapatinib; first compound 0.8 µM) | relative viability (Tanzisertib + Lapatinib; first compound 2.53 µM) | relative viability (Tanzisertib + Lapatinib; first compound 8 µM) | relative viability (Tanzisertib + Phenformin; first compound 0.08 µM) | relative viability (Tanzisertib + Phenformin; first compound 0.253 µM) | relative viability (Tanzisertib + Phenformin; first compound 0.8 µM) | relative viability (Tanzisertib + Phenformin; first compound 2.53 µM) | relative viability (Tanzisertib + Phenformin; first compound 8 µM)
1 | NCI-H2228 | 0.594 | 0.572 | 0.531 | 0.484 | 0.677 | 0.505 | 0.546 | 0.482 | 0.436 | 1.27 | 1.15 | 1.13 | 1.23 | 1.13 | 0.399 | 0.279 | 0.397 | 0.275 | 0.227
2 | RERF-LC-KJ | 0.795 | 0.934 | 0.893 | 0.778 | 0.871 | 0.911 | 0.88 | 0.778 | 0.709 | 0.872 | 0.873 | 0.884 | 0.8 | 0.892 | 0.45 | 0.39 | 0.439 | 0.4 | 0.384
3 | NCI-H661 | 0.896 | 0.839 | 1.05 | 0.817 | 0.702 | 0.878 | 0.893 | 0.723 | 0.55 | 0.596 | 0.431 | 0.505 | 0.511 | 0.449 | 0.32 | 0.256 | 0.24 | 0.285 | 0.284
4 | HCC-366 | 0.405 | 0.898 | 0.618 | 0.594 | 0.544 | 0.621 | 0.483 |  | 0.508 | 0.985 | 1.06 | 1.1 | 1.07 | 1.03 | 0.671 | 0.599 | 0.651 | 0.681 | 0.646
5 | SK-LU-1 | 0.156 | 0.181 | 0.206 | 0.166 | 0.132 | 0.138 | 0.136 | 0.109 | 0.121 | 1.1 | 0.869 | 0.855 | 0.994 | 0.816 | 0.694 | 0.542 | 0.566 | 0.509 | 0.561
6 | A-427 | 0.639 | 0.751 | 0.731 | 0.703 | 0.483 | 0.666 | 0.707 |  | 0.506 | 1.19 | 1.18 | 1.04 | 1.04 | 1.12 | 0.394 | 0.411 | 0.413 | 0.326 | 0.22
7 | SW 1573 |  | 0.647 | 0.658 | 0.486 | 0.405 | 0.592 | 0.433 | 0.259 | 0.231 | 0.625 | 1.09 | 1 | 1.01 | 1.1 | 0.457 | 0.305 | 0.347 | 0.417 | 0.356
8 | NCI-H322M | 0.24 | 0.228 | 0.247 | 0.282 | 0.242 | 0.253 | 0.266 |  | 0.318 | 0.621 | 0.61 | 0.567 | 0.626 | 0.571 | 0.788 | 0.728 | 0.832 | 0.81 | 0.721
9 | ABC-1 | 0.55 | 0.563 | 0.652 | 0.497 | 0.577 | 0.552 | 0.648 | 0.507 | 0.445 | 1.17 | 1 |  | 1.36 | 1.41 | 0.242 | 0.251 | 0.226 | 0.211 | 0.218
10 | LK-2 | 0.236 | 0.388 | 0.275 | 0.482 | 0.375 |  | 0.339 |  | 0.424 | 1.1 | 0.895 | 1.12 | 0.996 | 0.977 | 0.77 | 0.517 | 0.559 | 0.548 | 0.228
11 | NCI-H2023 | 0.48 | 0.661 | 0.583 | 0.567 | 0.592 | 0.56 | 0.502 | 0.487 | 0.465 | 0.92 | 0.809 | 0.867 | 0.925 | 0.261 | 0.427 | 0.37 | 0.407 | 0.411 | 0.404
12 | NCI-H596 | 0.602 | 0.562 | 0.654 | 0.664 | 0.671 | 0.537 | 0.493 |  | 0.557 | 1.18 | 1.15 | 1.04 | 1.09 | 0.985 | 0.968 | 0.626 | 0.882 | 0.675 | 0.602
13 | SK-MES-1 | 0.424 | 0.221 | 0.465 | 0.368 | 0.398 | 0.398 | 0.358 | 0.279 | 0.334 | 0.49 | 0.438 | 0.455 | 0.509 | 0.466 | 0.683 | 0.637 | 0.663 | 0.645 | 0.632
14 | NCI-H1793 | 0.335 | 0.357 | 0.352 | 0.404 | 0.308 | 0.419 | 0.418 |  | 0.298 | 0.737 | 0.873 | 0.74 | 0.608 | 0.643 | 0.448 | 0.339 | 0.41 | 0.379 | 0.367
15 | NCI-H2405 | 0.201 | 0.213 | 0.187 | 0.202 | 0.186 | 0.2 | 0.187 | 0.19 | 0.162 | 1.26 | 1.11 | 1.1 | 1.36 | 0.612 | 0.454 | 0.393 | 0.426 | 0.385 | 0.345
16 | NCI-H460 | 0.387 | 0.454 | 0.537 | 0.529 | 0.463 | 0.525 | 0.451 | 0.27 | 0.337 | 0.968 | 0.959 | 0.949 | 0.952 | 1.05 | 0.572 | 0.522 | 0.489 | 0.54 | 0.523
17 | NCI-H1755 | 0.483 |  | 0.474 | 0.399 | 0.292 | 0.449 | 0.457 | 0.316 | 0.223 | 1.06 | 0.98 | 0.995 | 1.07 | 0.968 | 0.692 | 0.612 | 0.595 | 0.649 | 0.632
